The supplement of paper PMC10307832

Experiments:
Assay in all cases: relative viability (nuclei count vs DMSO), 5 days (fraction); higher = more cells survive
[1] = compound: C1CN(CCN1)C2=CC=C(C=C2)C3=CN4C(=C(C=N4)C5=CC=NC6=CC=CC=C56)N=C3 [DM3189] + CC(=O)c1c(C)c2cnc(Nc3ccc(N4CCNCC4)cn3)nc2n(C2CCCC2)c1=O [Palbociclib] (partner 0.5 µM)
In short: (§1)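 Relative viability is defined as nuclei in treated wells over nuclei in vehicle wells. Duplicate plates were run and medians reported. Lung cancer cell lines in 1536-well plates were dosed by pin tool one day after seeding, with one drug or with a fixed anchor-drug dose plus five library-drug doses (not always all listed) in √10 steps, and nuclei were counted after 5 days.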

[2] = compound: C1CN(CCN1)C2=CC=C(C=C2)C3=CN4C(=C(C=N4)C5=CC=NC6=CC=CC=C56)N=C3 [DM3189] + CS(=O)(=O)CCNCc1ccc(-c2ccc3ncnc(Nc4ccc(OCc5cccc(F)c5)c(Cl)c4)c3c2)o1 [Lapatinib] (partner 2 µM)
In short: as §1

[3] = compound: C1CN(CCN1)C2=CC=C(C=C2)C3=CN4C(=C(C=N4)C5=CC=NC6=CC=CC=C56)N=C3 [DM3189] + N=C(N)NC(=N)NCCc1ccccc1 [Phenformin] (partner 250 µM)
In short: as §1

[4] = compound: C1CN(CCN1)C2=CC=C(C=C2)C3=CN4C(=C(C=N4)C5=CC=NC6=CC=CC=C56)N=C3 [DM3189] + Nc1nc2[nH]cc(CCc3ccc(C(=O)N[C@@H](CCC(=O)O)C(=O)O)cc3)c2c(=O)[nH]1 [Pemetrexed] (partner 0.2 µM)
In short: as §1

[5] = compound: C1CN(CCN1)C2=CC=C(C=C2)C3=CN4C(=C(C=N4)C5=CC=NC6=CC=CC=C56)N=C3 [DM3189] + O=C(c1cc(Cc2n[nH]c(=O)c3ccccc23)ccc1F)N1CCN(C(=O)C2CC2)CC1 [Olaparib] (partner 8 µM)
In short: as §1

Row | Cell Line | relative viability ([1]; first compound 0.08 µM) | relative viability ([1]; first compound 0.253 µM) | relative viability ([1]; first compound 0.8 µM) | relative viability ([1]; first compound 2.53 µM) | relative viability ([2]; first compound 0.08 µM) | relative viability ([2]; first compound 0.253 µM) | relative viability ([2]; first compound 0.8 µM) | relative viability ([2]; first compound 2.53 µM) | relative viability ([3]; first compound 0.08 µM) | relative viability ([3]; first compound 0.253 µM) | relative viability ([3]; first compound 0.8 µM) | relative viability ([3]; first compound 2.53 µM) | relative viability ([4]; first compound 0.08 µM) | relative viability ([4]; first compound 0.253 µM) | relative viability ([4]; first compound 0.8 µM) | relative viability ([4]; first compound 2.53 µM) | relative viability ([5]; first compound 0.08 µM) | relative viability ([5]; first compound 0.253 µM) | relative viability ([5]; first compound 0.8 µM) | relative viability ([5]; first compound 2.53 µM)
1 | NCI-H2347 | 0.412 | 0.4 | 0.417 | 0.435 | 1.09 | 0.866 | 0.703 | 0.97 | 0.399 | 0.45 | 0.53 | 0.434 | 0.473 | 0.51 | 0.432 | 0.518 | 0.544 | 0.53 | 0.522 | 0.55
2 | NCI-H2405 | 0.54 | 0.55 | 0.494 | 0.453 | 1.14 | 1.01 | 0.979 | 0.958 | 0.384 | 0.351 | 0.416 | 0.411 | 1.1 | 0.917 | 0.997 | 1.06 | 0.919 | 0.858 | 0.781 | 0.793
3 | NCI-H3122 | 0.2 | 0.178 | 0.154 | 0.162 | 0.976 | 1.02 | 0.911 | 0.878 | 0.405 | 0.334 | 0.355 | 0.333 | 0.203 | 0.197 | 0.184 | 0.159 | 0.698 | 0.606 | 0.545 | 0.73
4 | PC-3 [JPC-3] | 0.574 | 0.48 | 0.553 | 0.543 | 0.436 | 0.456 | 0.431 | 0.439 | 0.475 | 0.467 | 0.471 | 0.467 | 1.5 | 1.02 | 1.08 | 0.856 | 1.17 | 1.11 | 1.08 | 1.05
5 | PC-14 | 0.591 | 0.458 | 0.465 | 0.449 | 0.319 | 0.284 | 0.34 | 0.377 | 0.817 | 0.527 | 0.435 | 0.487 | 0.142 | 0.125 | 0.14 | 0.122 | 0.277 | 0.238 | 0.264 | 0.226
6 | RERF-LC-KJ | 1.31 | 1.27 | 0.989 | 1.03 | 0.965 | 0.954 | 0.843 | 0.854 | 0.451 | 0.4 | 0.407 | 0.426 | 0.461 | 0.471 | 0.469 | 0.559 | 0.942 | 0.889 | 0.823 | 0.833
7 | SK-LU-1 | 0.339 | 0.268 | 0.329 | 0.31 | 0.864 | 0.718 | 0.583 | 0.459 | 0.479 | 0.383 | 0.33 | 0.314 | 1 | 0.863 | 0.857 | 0.549 | 0.449 | 0.398 | 0.35 | 0.372
8 | SK-MES-1 | 0.236 | 0.26 | 0.343 | 0.305 | 0.458 | 0.416 | 0.456 | 0.402 | 0.679 | 0.62 | 0.587 | 0.662 | 1.12 | 0.962 | 0.822 | 0.849 | 0.679 | 0.546 | 0.594 | 0.348
9 | SW 1573 | 0.454 | 0.342 | 0.339 | 0.255 | 1.1 | 0.944 | 1.16 | 1.23 | 0.318 | 0.349 | 0.296 | 0.285 | 0.948 | 0.791 | 0.706 | 0.638 | 0.543 | 0.449 | 0.441 | 0.106
10 | UMC-11 | 0.371 | 0.333 | 0.313 | 0.323 | 1.2 | 1.04 | 0.868 | 0.751 | 0.348 | 0.321 | 0.349 | 0.356 | 0.845 | 0.763 | 0.814 | 0.562 | 0.395 | 0.37 | 0.35 | 0.458
